This is an account of results in US12568971B2, “Degradative method” (Catexel Technologies Limited, priority 2020, dated 2026).

Series [1] in a line: Dynamic viscosity of alginate solution after treatment (alginate depolymerisation), Brookfield cone/plate viscometer. The conditions noted are these: 60 min at 50° C. How it is done:
The bottle was placed in a warm water bath (50° C.) for 60 minutes before being removed and cooled in an ice bath. Finally, the dynamic viscosity was determined using a Brookfield viscosity meter as outlined below. Note 1: A 2 mM solution of [[…])2 (see description of stock 12 above) was mixed with equivalent volume of the 2 mM ascorbic acid stock solution (stock solution 7). Upon contact with the ascorbic acid, the catalyst turned from orange/red to red/purple. Note 2: 0.5 mL of both Me3-TACN ligand (stock solution 10) and MnSO4·H2O (stock solution 8) were mixed, stirred and used as a source of catalyst to be placed in the alginate solution. The dynamic viscosity of the samples was measured using a Brookfield HBDV-II cone/plate viscosity meter equipped with a spindle CPE-40. The viscometer was linked to a water bath to maintain the temperature at 25° C. The apparatus was controlled via computer (external mode) using the Rheocalc software. Initially, the viscometer was zeroed without spindle. Then, the spindle CPE-40 was installed and the gap between the bottom of the cone and the top of the cup was set according to the recommendations given by Brookfield. 0.5 mL of the treated alginate solution was placed in the cup of the viscometer using a disposable plastic syringe before the apparatus was closed and the test program launched. […] Results.

For series [2] the following is noted: cited from earlier work.
The conditions of series [3]: at 20° C.; cited from earlier work.

`O=S(=O)([O-])[O-].[Mn+2]` [MnSO4, manganese sulfate]: the “Dynamic Viscosity” value in series [1] (Entry 1: 10 μM MnSO4, 10 μM Me3TACN ligand, 20 mM H2O2, 4.7 mM NaHCO3, pH 10) came out at 85.4 mPa · s; in series [1] (Entry 2: 10 μM MnSO4, 20 μM Me3TACN ligand, 20 mM H2O2, 4.7 mM NaHCO3, pH 10) it was 76.1 mPa · s; in series [1] (Entry 3: 10 μM MnSO4, 40 μM Me3TACN ligand, 20 mM H2O2, 4.7 mM NaHCO3, pH 10) it was 63.4 mPa · s.
Turning to `CC(=O)[O-].CN1CCN(C)CCN(CCN2CCN(C)CCN(C)CC2)CC1.[Cl-].[Cl-].[Mn+3].[Mn+4].[O-2].[O-2]` [[Mn2(μ-O)2(μ-CH3COO)(Me4-DTNE)]^2+, [Mn2(μ-O)2(μ-CH3COO)(Me4DTNE)]Cl2], the “Dynamic Viscosity” value in series [1] (2.5 μM, pH 7.5, 10 mM H2O2, no buffer) was found to be 82.3 mPa · s; in series [1] (2.5 μM, pH 8.0, 10 mM H2O2, no buffer), 82.9 mPa · s; in series [1] (2.5 μM, pH 8.5, 10 mM H2O2, no buffer), 80.7 mPa · s; in series [1] (5.0 μM, pH 7.5, 10 mM H2O2, no buffer) it was 49.4 mPa · s; in series [1] (5.0 μM, pH 8.0, 10 mM H2O2, no buffer), 53.7 mPa · s; in series [1] (5.0 μM, pH 8.5, 10 mM H2O2, no buffer), 51.5 mPa · s. Further, the “Dynamic Viscosity” value in series [1] (5.0 μM, pH 9.0, 10 mM H2O2, no buffer) is 62.9 mPa · s.
The pKa is the pH at which an ionisable group is half protonated. As to `O=C(O)[C@@H]1O[C@@H](O)[C@@H](O)[C@@H](O)[C@@H]1O` [α-L-guluronic acid], in series [2], the pKa is 3.65.
Regarding `O=C(O)[C@H]1O[C@@H](O)[C@@H](O)[C@@H](O)[C@@H]1O` [β-D-mannuronic acid], the pKa in series [2] is 3.38.
With [Mn^IVMn^IV(μ-O)3(Me3-TACN)2][PF6]2, the water solubility in series [3] is 10.8 mg/mL.
